Tests used:
[1] = tested on: type-I interferon signaling pathway; test: SEAP reporter gene assay in HEK-Blue IFNα/β cells stimulated with IFN-α2a; assay type: cell-based; conditions: Homo sapiens
Phospho-STAT1 (Tyr701) [2] = test: Western blot of STAT1 phosphorylation in HEK-Blue IFNα/β cells after IFN-α2a; assay type: cell-based, human; conditions: niclosamide 10 μmol/L (Fig. 5B, Fig. S2)
Phospho-STAT1 (Tyr701) [3] = test: Western blot of STAT1 phosphorylation in SH-SY5Y cells after IFN-α2a; assay type: cell-based, human; conditions: niclosamide 10 μmol/L (Fig. 6B)
IRF7 mRNA = IRF7 mRNA quantitative PCR in SH-SY5Y cells; assay type: cell-based, human; conditions: positive control niclosamide, IFN-α2a 1 h
STAT3 phosphorylation = conditions: concentrations below 10 μmol/L; cited from earlier work

IC50 [1]: 370 nM
SMILES: O=C(Nc1ccc([N+](=O)[O-])cc1Cl)c1cc(Cl)ccc1O [niclosamide, Niclosamide]
effect on STAT1 phosphorylation (Phospho-STAT1 (Tyr701) [2]): also inhibited STAT1 phosphorylation | effect on STAT1 phosphorylation (Phospho-STAT1 (Tyr701) [3]): also inhibited STAT1 phosphorylation | IRF7 level after compound plus IFN-α2a (IRF7 mRNA): 0.84±0.07 folds | effect on STAT phosphorylation (STAT3 phosphorylation): only inhibit STAT3 phosphorylation

From article PMC6251811 (Acta Pharmaceutica Sinica. B, 2018)
